# Patent publication US20240182487A1, “MACROCYCLES AND THEIR USE” (BLOSSOMHILL THERAPEUTICS, INC., priority 2020, published 2024)
# Columns and labels:
# Assay type in all cases: biochemical
# Details in all cases: radiometric filter-binding, 10 μM ATP
# EGFR (Δ746-750) = EGFR (Δ746-750) (Homo sapiens (Human), UniProt P00533, DEL746-750); assay: HotSpot radiometric kinase assay, EGFR Δ746-750
# [1] = biological target: EGFR Δ746-750/C797S mutant (Homo sapiens (Human), UniProt P00533, C797S/DEL746-750); assay: HotSpot radiometric kinase assay, EGFR Δ746-750/C797S
# Procedure: (§1) Biochemical Assays for Inhibition of Wild-Type and Mutant EGFRs
# (§2) The inhibitory activities against EGFR WT, EGFR Δ752-759 mutant, EGFR Δ746-750/T790M mutant, EGFR Δ746-750/C797S mutant, EGFR Δ746-750/T790M/C797S mutant. […] Briefly, specific kinase/substrate pairs along with required cofactors were prepared in reaction buffer; 20 mM Hepes pH 7.5, 10 mM MgCl2, 1 mM EGTA, 0.02% Brij35, 0.02 mg/ml BSA, 0.1 mM Na3VO4, 2 mM DTT, 1% DMSO. Compounds were delivered into the reaction, followed ˜20 minutes later by addition of a mixture of ATP (Sigma, St. Louis MO) and ^33P ATP (Perkin Elmer, Waltham MA) to a final concentration of 10 μM. Reactions were carried out at room temperature for 120 min, followed by spotting of the reactions onto P81 ion exchange filter paper (Whatman Inc., Piscataway, NJ). Unbound phosphate was removed by extensive washing of filters in 0.75% phosphoric acid. […] IC50 values and curve fits were obtained using Prism (GraphPad Software).
# [2] = biological target: EGFR Δ746-750/T790M mutant (Homo sapiens (Human), UniProt P00533, DEL746-750/T790M); assay: HotSpot radiometric kinase assay, EGFR Δ746-750/T790M
# Procedure: as §1, §2
# [3] = biological target: EGFR Δ746-750/T790M/C797S mutant (Homo sapiens (Human), UniProt P00533, C797S/DEL746-750/T790M); assay: HotSpot radiometric kinase assay, EGFR Δ746-750/T790M/C797S
# Procedure: as §1, §2
# EGFR Δ746-750/C797S mutant, sequence (P00533 other isoform, or with tags, fused parts or gaps C797S/del 1-668/del 746-750 limits assumed): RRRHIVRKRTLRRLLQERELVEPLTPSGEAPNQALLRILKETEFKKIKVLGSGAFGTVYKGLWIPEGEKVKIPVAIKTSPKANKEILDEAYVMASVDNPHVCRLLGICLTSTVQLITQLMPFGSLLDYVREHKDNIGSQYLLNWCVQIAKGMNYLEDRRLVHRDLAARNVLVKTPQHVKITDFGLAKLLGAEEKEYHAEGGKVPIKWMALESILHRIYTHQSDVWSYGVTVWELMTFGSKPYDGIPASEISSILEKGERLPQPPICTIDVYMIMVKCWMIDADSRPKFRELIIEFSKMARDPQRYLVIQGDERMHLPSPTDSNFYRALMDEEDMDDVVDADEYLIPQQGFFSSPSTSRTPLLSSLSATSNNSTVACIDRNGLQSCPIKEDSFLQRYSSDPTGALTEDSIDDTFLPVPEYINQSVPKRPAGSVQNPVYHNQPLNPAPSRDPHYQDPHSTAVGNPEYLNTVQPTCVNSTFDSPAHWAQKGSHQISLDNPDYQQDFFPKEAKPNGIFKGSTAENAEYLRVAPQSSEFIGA
# EGFR Δ746-750/T790M/C797S mutant, sequence (P00533 other isoform, or with tags, fused parts or gaps T790M/C797S/del 1-668/del 746-750 limits assumed): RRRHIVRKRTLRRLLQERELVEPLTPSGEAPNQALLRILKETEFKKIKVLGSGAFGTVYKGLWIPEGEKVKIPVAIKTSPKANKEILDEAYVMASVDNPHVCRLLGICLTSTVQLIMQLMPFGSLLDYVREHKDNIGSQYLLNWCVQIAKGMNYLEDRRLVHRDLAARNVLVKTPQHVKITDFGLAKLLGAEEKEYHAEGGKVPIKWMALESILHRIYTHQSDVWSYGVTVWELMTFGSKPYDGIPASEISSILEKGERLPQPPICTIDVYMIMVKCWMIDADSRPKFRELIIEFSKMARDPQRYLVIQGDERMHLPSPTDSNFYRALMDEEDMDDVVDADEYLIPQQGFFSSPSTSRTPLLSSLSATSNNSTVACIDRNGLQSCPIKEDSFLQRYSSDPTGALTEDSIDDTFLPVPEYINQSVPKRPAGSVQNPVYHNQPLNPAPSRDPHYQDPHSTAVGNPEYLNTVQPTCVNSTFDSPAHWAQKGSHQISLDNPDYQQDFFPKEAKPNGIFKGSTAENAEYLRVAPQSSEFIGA
# EGFR Δ746-750/T790M mutant, sequence (P00533 other isoform, or with tags, fused parts or gaps T790M/del 1-668/del 746-750 limits assumed): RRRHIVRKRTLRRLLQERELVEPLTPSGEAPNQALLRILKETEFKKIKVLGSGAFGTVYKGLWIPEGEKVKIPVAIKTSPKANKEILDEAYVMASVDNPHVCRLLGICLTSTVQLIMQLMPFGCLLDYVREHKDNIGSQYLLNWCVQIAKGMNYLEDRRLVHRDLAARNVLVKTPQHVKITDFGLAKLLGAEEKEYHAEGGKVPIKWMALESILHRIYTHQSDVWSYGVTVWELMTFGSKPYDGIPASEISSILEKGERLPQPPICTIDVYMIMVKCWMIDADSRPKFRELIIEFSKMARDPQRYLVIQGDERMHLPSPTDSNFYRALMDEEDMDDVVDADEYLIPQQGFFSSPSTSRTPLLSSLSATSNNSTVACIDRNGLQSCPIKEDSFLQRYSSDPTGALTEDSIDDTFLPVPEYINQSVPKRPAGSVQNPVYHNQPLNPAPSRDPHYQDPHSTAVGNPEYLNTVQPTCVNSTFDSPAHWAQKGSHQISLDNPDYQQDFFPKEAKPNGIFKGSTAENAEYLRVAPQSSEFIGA
# EGFR (Δ746-750), sequence (P00533 other isoform, or with tags, fused parts or gaps del 1-668/del 746-750 limits assumed): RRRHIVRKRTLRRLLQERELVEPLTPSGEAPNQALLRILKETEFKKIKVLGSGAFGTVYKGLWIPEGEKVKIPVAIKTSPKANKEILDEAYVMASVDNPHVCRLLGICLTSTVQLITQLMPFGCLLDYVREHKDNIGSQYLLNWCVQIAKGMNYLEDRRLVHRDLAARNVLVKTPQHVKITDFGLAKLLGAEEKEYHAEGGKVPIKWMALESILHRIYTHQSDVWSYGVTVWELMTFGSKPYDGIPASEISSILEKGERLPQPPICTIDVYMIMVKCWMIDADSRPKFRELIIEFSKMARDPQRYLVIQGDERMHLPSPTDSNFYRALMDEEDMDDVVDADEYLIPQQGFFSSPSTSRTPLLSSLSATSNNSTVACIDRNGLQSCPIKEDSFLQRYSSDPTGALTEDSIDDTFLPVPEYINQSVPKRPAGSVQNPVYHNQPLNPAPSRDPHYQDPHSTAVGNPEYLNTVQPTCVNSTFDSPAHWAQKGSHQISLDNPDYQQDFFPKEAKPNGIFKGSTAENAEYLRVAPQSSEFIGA
Compound,IC50 (EGFR (Δ746-750)),IC50 [1],IC50 [2],IC50 [3]
"Cn1ncc2c1COCCOc1ccccc1/C=C/c1n[nH]c3cnc-2nc13 [Cpd. 16, (18E)-8-methyl-8,9,11,12-tetrahydro-2H-5,3-(azenometheno)dipyrazolo[3,4-f:4′,3′-j][1,4,9]benzodioxazacyclopentadecine]",32.9 nM,61.3 nM,38.4 nM,5.1 nM
"CCc1nn(C)c2c1/C=C/c1n[nH]c3cnc(cc13)-c1cc(F)ccc1OCCN(C)C2=O [Cpd. 62, (18E)-17-ethyl-7-fluoro-13,15-dimethyl-2,12,13,15-tetrahydro-5,3-(azenometheno)dipyrazolo[3,4-f:3′,4′-j][1,4]benzoxazacyclopentadecin-14(11H)-one]",45.5 nM,5.7 nM,4.1 nM,0.5 nM
"Cn1ncc2c1COCCOc1ccccc1/C=C/c1n[nH]c3cnc-2cc13 [Cpd. 63, (11E)-1-methyl-1,18,19,21-tetrahydro-8H-10,7,4-(ethan[1]yl[1,2]diylidene)pyrazolo[3,4-f][1,4,9,12,13]benzodioxatriazacyclooctadecine]",14.9 nM,7.7 nM,2.8 nM,0.2 nM
"Cc1ccc2c(n1)/C=C/c1n[nH]c3cnc(nc13)-c1cnn(C)c1C(C)OCCO2 (stereo not drawn) [Cpd. 65, (18E)-8,9,16-trimethyl-8,9,11,12-tetrahydro-2H-5,3-(azenometheno)dipyrazolo[3,4-f:4′,3′-j]pyrido[2,3-n][1,4,9]dioxazacyclopentadecine]",281 nM,34.1 nM,35.9 nM,3.9 nM
"CN1CCN(C(=O)c2ccc3c(c2)/C=C/c2n[nH]c4cnc(cc24)-c2cnn(C)c2COCCO3)CC1 [Cpd. 96, (4-methylpiperazin-1-yl)[(11E)-1-methyl-1,18,19,21-tetrahydro-8H-10,7,4-(ethan[1]yl[1,2]diylidene)pyrazolo[3,4-f][1,4,9,12,13]benzodioxatriazacyclooctadecin-14-yl]methanone]",740 nM,,,
"CN(C)CCCNC(=O)c1ccc2c(c1)/C=C/c1n[nH]c3cnc(cc13)-c1cnn(C)c1COCCO2 [Cpd. 91, (11E)-N-[3-(dimethylamino)propyl]-1-methyl-1,18,19,21-tetrahydro-8H-10,7,4-(ethan[1]yl[1,2]diylidene)pyrazolo[3,4-f][1,4,9,12,13]benzodioxatriazacyclooctadecine-14-carboxamide]",19.7 nM,,,
"CN1CCOCCN(c2ccc(F)c(Cl)c2)c2cc3c(n[nH]c3cn2)/C=C/c2cn(C)nc2C1=O [Cpd. 99, (17E)-6-(3-chloro-4-fluorophenyl)-12,15-dimethyl-2,7,8,11,12,15-hexahydro-6H-5,3-(azenometheno)dipyrazolo[3,4-f:3′,4′-j][1,4,14]oxadiazacyclohexadecin-13(10H)-one]",84.4 nM,11.3 nM,8530 nM,3380 nM
"CN1CCC(NC(=O)c2ccc3c(c2)/C=C/c2n[nH]c4cnc(cc24)-c2cnn(C)c2COCCO3)CC1 [Cpd. 93, (11E)-1-methyl-N-(1-methylpiperidin-4-yl)-1,18,19,21-tetrahydro-8H-10,7,4-(ethan[1]yl[1,2]diylidene)pyrazolo[3,4-f][1,4,9,12,13]benzodioxatriazacyclooctadecine-14-carboxamide]",13.6 nM,,,
"Cc1nc2cc3c(n[nH]c13)/C=C/c1cc(F)ccc1OCCCOc1c-2cnn1C [Cpd. 98, (11E)-14-fluoro-1,6-dimethyl-19,20-dihydro-1H,8H,18H-10,7,4-(ethan[1]yl[1,2]diylidene)pyrazolo[3,4-f][1,5,9,12,13]benzodioxatriazacyclooctadecine]",836 nM,,,
